Experimental data taken from patent US10457672B2, “γ-diketones as Wnt/β-catenin signaling pathway activators” (Samumed, LLC, priority 2013, dated 2019).

These molecules were tested on Wnt/β-catenin signaling pathway (Wnt-responsive SP5 promoter luciferase reporter in SW480 cells) (assay: Wnt reporter (SP5 promoter-firefly luciferase) activation assay in SW480 cells). Conditions: Homo sapiens; SW480 colon cancer cells with SP5 promoter luciferase reporter; 24 h after compound addition; normalized to DMSO; concentration at half maximal activation.
Format: cell-based
Summary of the method: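 SW480 cells (APC-mutant) stably carrying an SP5-derived 8×TCF/LEF promoter–firefly luciferase reporter were treated with half-log compound dilutions from 3 or 10 µM top.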

| Structure (SMILES) | EC50 [nM] |
| --- | --- |
| O=C(CCC(=O)c1ncccc1C(F)(F)F)c1ccc2c(c1)OCCO2 [Compound 570, 1-(2,3-Dihydrobenzo[b][1,4]dioxin-6-yl)-4-(3-(trifluoromethyl)pyridin-2-yl)butane-1,4-dione] | 26 |
| O=C(CCC(=O)c1ncccn1)c1ccccc1 [Compound 718, 1-Phenyl-4-(pyrimidin-2-yl)butane-1,4-dione] | 681 |
| O=C(CCC(=O)c1ncccn1)c1ccc2c(c1)CCCC2 [Compound 737, 1-(Pyrimidin-2-yl)-4-(5,6,7,8-tetrahydronaphthalen-2-yl)butane-1,4-dione] | 22 |
| O=C(CCC(=O)c1ncccc1Cl)c1ccc2c(c1)OCCO2 [Compound 767, 1-(3-Chloropyridin-2-yl)-4-(2,3-dihydrobenzo[b][1,4]dioxin-6-yl) butane-1,4-dione] | 2.16 |
